Laboratory results from US20240351985A1, “NOVEL COMPOUND AND USE OF SAID COMPOUND” (APHEA.BIO NV, priority 2021, published 2024).
≈ marks a conversion by molar mass, not a printed value. Where “and” joins values, the source holds several entries; their conditions need not be identical. Equal entries are not always repeated. Where two headings read alike, the source gives them in different places.

Key:
[1] = test system: F. graminearum spores; format: cell-based, Fusarium graminearum; conditions: for Halo Diameter / Opacity Grade: 24 hours
[2] = test system: Zymoseptoria tritici; assay: microbe, parasite or virus in culture; format: cell-based; conditions: 120 h, incubation 5 d
[3] = test system: Fusarium graminearum, Puccinia striiformis and Zymoseptoria tritici; assay: organism not typed; format: cell-based
[4] = test system: Puccinia striiformis; assay: Dose-response liquid-based assay against spores of Puccinia striiformis; format: cell-based; conditions: 48 h
[5] = test system: Fusarium graminearum; assay: microbe, parasite or virus in culture; format: cell-based; conditions: 22 h
[6] = read-out: Absorbance (600 nm): AC50 value, Estimation
[7] = read-out: Absorbance (600 nm): AC50 value, Range
[8] = read-out: Fluorescence of resazurin dye (excitation 570 nm, emission 615 nm): AC50 value, Estimation
[9] = read-out: Fluorescence of resazurin dye (excitation 570 nm, emission 615 nm): AC50 value, Range

C[C@@H]1[C@H](O)[C@@H](C)/C=C/C=C/C=C/C=C/C=C/C=C/C=C/[C@H](O[C@@H]2O[C@H](C)[C@@H](O)[C@H](N)[C@@H]2O)C[C@@H]2O[C@](O)(C[C@@H](O)C[C@@H](O)[C@H](O)CC[C@@H](O)C[C@@H](O)CC(=O)O[C@H]1C)C[C@H](O)[C@H]2C(=O)O [Amphotericin B, reference compound]
Halo Diameter ([1]; 10 μL pipetted, 0.125 mg/mL): 9.3 mm | Opacity Grade ([1]; 10 μL pipetted, 0.125 mg/mL): B (‘B’ means 60-80% inhibition of the pathogen) | Halo Diameter ([1]; 10 μL pipetted, 0.15625 mg/mL): 7.1 mm | Opacity Grade ([1]; 10 μL pipetted, 0.15625 mg/mL): C (‘C’ means 40-60% inhibition of the pathogen) | Halo Diameter ([1]; 10 μL pipetted, 0.250 mg/mL): 9.2 mm and 9 mm and 9.3 mm and 8.7 mm | Opacity Grade ([1]; 10 μL pipetted, 0.250 mg/mL): A (‘A’ means 80-100% inhibition of the pathogen) | Halo Diameter ([1]; 10 μL pipetted, 0.3125 mg/mL): 7.7 mm | Opacity Grade ([1]; 10 μL pipetted, 0.3125 mg/mL): C (‘C’ means 40-60% inhibition of the pathogen) | Halo Diameter ([1]; 10 μL pipetted, 0.625 mg/mL): 9.1 mm | Opacity Grade ([1]; 10 μL pipetted, 0.625 mg/mL): B (‘B’ means 60-80% inhibition of the pathogen)

C=C/C(C)=C/[C@@H](C)C(=O)CC(CC(CC(N)=O)CC(=O)O)SC (stereo partly shown) [C17H27NO4S]
AC50 [2, 6]: 16 µg/mL (≈ 46.9 µM) | AC50 [2, 7]: 14.9 to 17.2 µg/mL (≈ 43.7 to 50.4 µM) | AC50 [2, 8]: 15.9 µg/mL (≈ 46.6 µM) | AC50 [2, 9]: 14.8 to 17.1 µg/mL (≈ 43.3 to 50 µM) | AC50 ([3]; read-out: Active concentrations (AC50 ranges) for hyphal growth in the wells): 7.54 to 17.2 µg/mL (≈ 22.1 to 50.4 µM) | AC50 ([3]; read-out: Active concentrations (AC50 ranges) for metabolic activity): 11.7 to 17.1 µg/mL (≈ 34.1 to 50 µM) | AC50 [4, 8]: 12.8 µg/mL (≈ 37.5 µM) | AC50 [4, 9]: 11.7 to 14 µg/mL (≈ 34.1 to 41.1 µM) | Halo Diameter ([1]; 2 μL pipetted, 0.125 mg/mL): 4.4 mm and 4.7 mm and 4.3 mm | Opacity Grade ([1]; 2 μL pipetted, 0.125 mg/mL): E (‘E’ means 0-20% inhibition of the pathogen) | Halo Diameter ([1]; 2 μL pipetted, 0.250 mg/mL): 5.5 mm and 5.6 mm | Opacity Grade ([1]; 2 μL pipetted, 0.250 mg/mL): D (‘D’ means 20-40% inhibition of the pathogen) | Halo Diameter ([1]; 2 μL pipetted, 0.500 mg/mL): 6.7 mm and 7.2 mm and 7.1 mm | Opacity Grade ([1]; 2 μL pipetted, 0.500 mg/mL): B (‘B’ means 60-80% inhibition of the pathogen) | Halo Diameter ([1]; 2 μL pipetted, 1 mg/mL): 8.3 mm and 8.2 mm | Opacity Grade ([1]; 2 μL pipetted, 1 mg/mL): A (‘A’ means 80-100% inhibition of the pathogen) | Halo Diameter ([1]; 2 μL pipetted, 2 mg/mL): 9.1 mm and 9.3 mm | Opacity Grade ([1]; 2 μL pipetted, 2 mg/mL): A (‘A’ means 80-100% inhibition of the pathogen) | Halo Diameter ([1]; 2 μL pipetted, 4 mg/mL): 9.5 mm and 9.2 mm and 9.6 mm | Opacity Grade ([1]; 2 μL pipetted, 4 mg/mL): A (‘A’ means 80-100% inhibition of the pathogen) | Halo Diameter ([1]; 2 μL pipetted, 8 mg/mL): 9.8 mm and 9.2 mm and 9.7 mm | Opacity Grade ([1]; 2 μL pipetted, 8 mg/mL): A (‘A’ means 80-100% inhibition of the pathogen) | Activity against F. graminearum spores ([1]; all concentrations tested (8 mg/mL to 125 μg/mL)): active | AC50 [5, 6]: 8.9 µg/mL (≈ 26.1 µM) | AC50 [5, 7]: 7.54 to 10.5 µg/mL (≈ 22.1 to 30.7 µM) | AC50 [5, 8]: 13.2 µg/mL (≈ 38.8 µM) | AC50 [5, 9]: 11.8 to 14.8 µg/mL (≈ 34.6 to 43.5 µM)
